Laboratory results from PubChem BioAssay AID2060502 (Molecular Pharmacology Branch, DTP, NCI, 2025).

System: 885724-159-R-J1-PDC complex spheroid viability
Assay: Anticancer human tumor 885724-159-R-J1-PDC patient-derived pancreatic adenocarcinoma cell line growth inhibition [GQUAD]
Conditions: for IC50: curve of first compound; for viability, T/C: stronger effect = lower value
Procedure, shortened: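 Tumor cells were grown as complex spheroids with HUVEC endothelial cells and mesenchymal stem cells as stroma. G-quadruplex stabilizers were combined with targeted agents over half-log dilutions from near the clinical Cmax, or from 10 microM.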

[1] = second compound 0.0316 µM, first compound 0.0316 µM
[2] = second compound 0.0316 µM, first compound 0.1 µM
[3] = second compound 0.0316 µM, first compound 0.316 µM
[4] = second compound 0.0316 µM, first compound 1 µM
[5] = second compound 0.0316 µM, first compound 3.16 µM
[6] = second compound 0.0316 µM, first compound 10 µM
[7] = second compound 0.1 µM, first compound 0.0316 µM
[8] = second compound 0.1 µM, first compound 0.1 µM
[9] = second compound 0.1 µM, first compound 0.316 µM
[10] = second compound 0.1 µM, first compound 1 µM
[11] = second compound 0.1 µM, first compound 3.16 µM
[12] = second compound 0.1 µM, first compound 10 µM
[13] = second compound 0.316 µM, first compound 0.0316 µM
[14] = second compound 0.316 µM, first compound 0.1 µM
[15] = second compound 0.316 µM, first compound 0.316 µM
[16] = second compound 0.316 µM, first compound 1 µM
[17] = second compound 0.316 µM, first compound 3.16 µM
[18] = second compound 0.316 µM, first compound 10 µM
[19] = second compound 1 µM, first compound 0.0316 µM
[20] = second compound 1 µM, first compound 0.1 µM
[21] = second compound 1 µM, first compound 0.316 µM
[22] = second compound 1 µM, first compound 1 µM
[23] = second compound 1 µM, first compound 3.16 µM
[24] = second compound 1 µM, first compound 10 µM
[25] = second compound 3.16 µM, first compound 0.0316 µM
[26] = second compound 3.16 µM, first compound 0.1 µM
[27] = second compound 3.16 µM, first compound 0.316 µM
[28] = second compound 3.16 µM, first compound 1 µM
[29] = second compound 3.16 µM, first compound 3.16 µM
[30] = second compound 3.16 µM, first compound 10 µM
[31] = second compound 10 µM, first compound 0.0316 µM
[32] = second compound 10 µM, first compound 0.1 µM
[33] = second compound 10 µM, first compound 0.316 µM
[34] = second compound 10 µM, first compound 1 µM
[35] = second compound 10 µM, first compound 3.16 µM
[36] = second compound 10 µM, first compound 10 µM
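Also: spheroids exposed to agents for seven days before readout.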
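For viability, T/C in this document: percent of vehicle control viability where 100% = DMSO wells.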

For `COc1ccc([C@@H](O)c2cc(-c3ncnc4cc(N5CCOCC5)ccc34)c(F)cc2Cl)nn1` + Cc1[nH]c2ccc(F)cc2c1-c1nc2c3cccnc3c3ncccc3c2[nH]1, the IC50 (second compound 0.0316 µM) was 6.88 µM, the IC50 (second compound 0.1 µM) was 5.43 µM and the IC50 (second compound 0.316 µM) was 5.28 µM. It also gave an IC50 (second compound 1 µM) of 3.28 µM, an IC50 (second compound 3.16 µM) of under 0.0316 µM and an IC50 (second compound 10 µM) of 3.51 µM. It also gave a viability, T/C [1] of 101%, a viability, T/C [2] of 110% and a viability, T/C [3] of 108%. It also gave a viability, T/C [4] of 94%, a viability, T/C [5] of 68.5% and a viability, T/C [6] of 41.2%. It also gave a viability, T/C [7] of 99%, a viability, T/C [8] of 97% and a viability, T/C [9] of 90.5%. For the same compound, the viability, T/C [10] was 82.3%, the viability, T/C [11] was 57.7% and the viability, T/C [12] was 40.5%. For the same compound, the viability, T/C [13] was 92%, the viability, T/C [14] was 97.8% and the viability, T/C [15] was 83.6%. It also gave a viability, T/C [16] of 65.7%, a viability, T/C [17] of 66.5% and a viability, T/C [18] of 36.2%. For the same compound, the viability, T/C [19] was 76.1%, the viability, T/C [20] was 71.1% and the viability, T/C [21] was 82.8%. For the same compound, the viability, T/C [22] was 68.5%, the viability, T/C [23] was 51% and the viability, T/C [24] was 34.3%. For the same compound, the viability, T/C [25] was 47.5%, the viability, T/C [26] was 46.3% and the viability, T/C [27] was 51.2%. The viability, T/C [28] was 39.5%, the viability, T/C [29] was 33.7% and the viability, T/C [30] was 28.3%. It also gave a viability, T/C [31] of 72.4%, a viability, T/C [32] of 75.6% and a viability, T/C [33] of 62.6%. For the same compound, the viability, T/C [34] was 63.4%, the viability, T/C [35] was 52.9% and the viability, T/C [36] was 32.8%.

Work on `Cc1cccc(N(C)C(=O)C2C(O)CCN2c2nc(C)cc(C(F)(F)F)c2C#N)c1` (stereo not drawn) + CN(C)c1ccc(Nc2c3ccc(NC(=O)CCN4CCCC4)cc3nc3cc(NC(=O)CCN4CCCC4)ccc23)cc1 yielded an IC50 (second compound 0.0316 µM) of over 10 µM, an IC50 (second compound 0.1 µM) of over 10 µM and an IC50 (second compound 0.316 µM) of over 10 µM. It also gave an IC50 (second compound 1 µM) of over 10 µM, an IC50 (second compound 3.16 µM) of over 10 µM and an IC50 (second compound 10 µM) of over 10 µM. It also gave a viability, T/C [1] of 95.6%, a viability, T/C [2] of 98% and a viability, T/C [3] of 105%. It also gave a viability, T/C [4] of 92.7%, a viability, T/C [5] of 108% and a viability, T/C [6] of 97.7%. For the same compound, the viability, T/C [7] was 90.3%, the viability, T/C [8] was 103% and the viability, T/C [9] was 104%. It also gave a viability, T/C [10] of 90.4%, a viability, T/C [11] of 90% and a viability, T/C [12] of 101%. The viability, T/C [13] was 108%, the viability, T/C [14] was 86.2% and the viability, T/C [15] was 88.3%. For the same compound, the viability, T/C [16] was 87.1%, the viability, T/C [17] was 100% and the viability, T/C [18] was 102%. It also gave a viability, T/C [19] of 86%, a viability, T/C [20] of 80.5% and a viability, T/C [21] of 83.3%. It also gave a viability, T/C [22] of 82.4%, a viability, T/C [23] of 89.7% and a viability, T/C [24] of 83%. It also gave a viability, T/C [25] of 79.8%, a viability, T/C [26] of 68.8% and a viability, T/C [27] of 92.3%. For the same compound, the viability, T/C [28] was 81%, the viability, T/C [29] was 86.1% and the viability, T/C [30] was 86.5%. For the same compound, the viability, T/C [31] was 77%, the viability, T/C [32] was 79.3% and the viability, T/C [33] was 75.6%. It also gave a viability, T/C [34] of 80.2%, a viability, T/C [35] of 78.2% and a viability, T/C [36] of 56.5%.

Compound `CC(=O)O[C@H]1C(=O)[C@@]2(C)[C@H]([C@H](OC(=O)c3ccccc3)[C@]3(O)C[C@H](OC(=O)[C@H](O)[C@@H](NC(=O)c4ccccc4)c4ccccc4)C(C)=C1C3(C)C)[C@]1(OC(C)=O)CO[C@@H]1C[C@@H]2O` + CN(C)c1ccc(Nc2c3ccc(NC(=O)CCN4CCCC4)cc3nc3cc(NC(=O)CCN4CCCC4)ccc23)cc1 has an IC50 (second compound 0.0316 µM) of over 10 µM, an IC50 (second compound 0.1 µM) of over 10 µM and an IC50 (second compound 0.316 µM) of over 10 µM. The IC50 (second compound 1 µM) was over 10 µM, the IC50 (second compound 3.16 µM) was over 10 µM and the IC50 (second compound 10 µM) was over 10 µM. It also gave a viability, T/C [1] of 92.9%, a viability, T/C [2] of 82.8% and a viability, T/C [3] of 81.8%. The viability, T/C [4] was 85.3%, the viability, T/C [5] was 88% and the viability, T/C [6] was 98.7%. It also gave a viability, T/C [7] of 94%, a viability, T/C [8] of 92.7% and a viability, T/C [9] of 82.3%. The viability, T/C [10] was 89.8%, the viability, T/C [11] was 83.9% and the viability, T/C [12] was 96.8%. The viability, T/C [13] was 81.7%, the viability, T/C [14] was 82.4% and the viability, T/C [15] was 83.8%. The viability, T/C [16] was 76.7%, the viability, T/C [17] was 85.5% and the viability, T/C [18] was 81.1%. It also gave a viability, T/C [19] of 77.4%, a viability, T/C [20] of 64.3% and a viability, T/C [21] of 78.6%. It also gave a viability, T/C [22] of 68%, a viability, T/C [23] of 84.4% and a viability, T/C [24] of 82.5%. The viability, T/C [25] was 77.9%, the viability, T/C [26] was 56.1% and the viability, T/C [27] was 63.6%. It also gave a viability, T/C [28] of 66.2%, a viability, T/C [29] of 66.6% and a viability, T/C [30] of 72.1%. It also gave a viability, T/C [31] of 66.4%, a viability, T/C [32] of 69.6% and a viability, T/C [33] of 65.4%. For the same compound, the viability, T/C [34] was 67.4%, the viability, T/C [35] was 69.6% and the viability, T/C [36] was 67.7%.

In the case of `Nc1ccn(C2OC(CO)C(O)C2(F)F)c(=O)n1` (stereo not drawn) + Cc1cnc(CNC(=O)c2c(=O)c3ccc(N4CCCN(C)CC4)nc3n3c2sc2ccccc23)cn1, the IC50 (second compound 0.0316 µM) is reported as over 10 µM, the IC50 (second compound 0.1 µM) is reported as over 10 µM and the IC50 (second compound 0.316 µM) is reported as over 10 µM. For the same compound, the IC50 (second compound 1 µM) was over 10 µM, the IC50 (second compound 3.16 µM) was over 10 µM and the IC50 (second compound 10 µM) was over 10 µM. It also gave a viability, T/C [1] of 105%, a viability, T/C [2] of 104% and a viability, T/C [3] of 82%. The viability, T/C [4] was 98.1%, the viability, T/C [5] was 74.9% and the viability, T/C [6] was 70.3%. The viability, T/C [7] was 96.8%, the viability, T/C [8] was 113% and the viability, T/C [9] was 82.9%. It also gave a viability, T/C [10] of 82.4%, a viability, T/C [11] of 81.5% and a viability, T/C [12] of 84.4%. The viability, T/C [13] was 97%, the viability, T/C [14] was 97.9% and the viability, T/C [15] was 88.6%. It also gave a viability, T/C [16] of 78.3%, a viability, T/C [17] of 89.9% and a viability, T/C [18] of 78.8%. The viability, T/C [19] was 85.5%, the viability, T/C [20] was 87.4% and the viability, T/C [21] was 80.2%. It also gave a viability, T/C [22] of 77%, a viability, T/C [23] of 69.2% and a viability, T/C [24] of 70.6%. The viability, T/C [25] was 75%, the viability, T/C [26] was 76.3% and the viability, T/C [27] was 78%. The viability, T/C [28] was 62.9%, the viability, T/C [29] was 70.9% and the viability, T/C [30] was 68.4%. For the same compound, the viability, T/C [31] was 72.4%, the viability, T/C [32] was 75.1% and the viability, T/C [33] was 71.4%. It also gave a viability, T/C [34] of 69.2%, a viability, T/C [35] of 70.9% and a viability, T/C [36] of 74.8%.
